From patent publication US11351164B2, “Inhibitors of indoleamine 2,3-dioxygenase and methods of their use” (BRISTOL-MYERS SQUIBB COMPANY, priority 2016, dated 2022)

Experiments:
[1] = target: T1, indoleamine 2,3-dioxygenase (IDO) (Homo sapiens, UniProt P14902); experiment: HeLa cell-based indoleamine 2,3-dioxygenase (IDO) assay (IFNγ-induced kynurenine production, absorbance 480 nm); details: HeLa cells, IFNγ 25 ng/mL, 48 hour incubation
T1 construct: host or cells: HeLa cells treated with IFNγ (25 ng/mL)
T1 sequence (P14902 whole entry): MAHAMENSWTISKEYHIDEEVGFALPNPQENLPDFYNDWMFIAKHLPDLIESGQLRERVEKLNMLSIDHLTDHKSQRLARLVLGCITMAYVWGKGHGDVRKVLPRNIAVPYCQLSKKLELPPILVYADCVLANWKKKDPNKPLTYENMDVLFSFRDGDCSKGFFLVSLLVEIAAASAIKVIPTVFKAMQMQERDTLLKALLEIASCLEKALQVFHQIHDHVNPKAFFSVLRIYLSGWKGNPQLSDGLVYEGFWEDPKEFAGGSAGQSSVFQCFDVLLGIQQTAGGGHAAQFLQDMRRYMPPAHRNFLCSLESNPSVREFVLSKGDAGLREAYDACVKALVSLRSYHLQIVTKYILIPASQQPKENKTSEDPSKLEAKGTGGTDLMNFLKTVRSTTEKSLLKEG
Procedure: Assessment of inhibitor activity in HeLa cell-based indoleamine 2,3-dioxygenase (IDO) assay:
HeLa (ATCC® CCL-2) cells were obtained from the ATCC® and cultured in Dulbecco's Modified Eagle Medium supplemented with 4.5 g/L glucose, […] L-glutamine and […] (#10-013-CV, Corning), 2 mM L-alanyl-L-glutamine dipeptide (#35050-061, Gibco), 100U/mL penicillin, 100 μg/mL stroptomycin (#SV30010. HyClone) and 10% fetal bovine serum (#SH30071.03 HyClone). Cells were maintained in a humidified incubator at 37° C. in 5% CO2.
IDO activity was assessed as a function of kynurenine production as follows: HeLa cells were seeded in a 96-well culture plate at a density of 5,000 cells/well and allowed to equilibrate overnight. After 24 hours, the media was aspirated and replaced with media containing IFNγ (#285-IF/CF, R&D Systems) at a final concentration of 25 ng/mL. A serial dilution of each test compound was added to the cells in a total volume of 200 μL of culture medium. After a further 48 hour incubation, 170 μL of supernatant was transferred from each well to a fresh 96-well plate, 12.1 μL of 6.1N trichloroacetic acid (#T0699, Sigma-Aldrich) was added to each well and mixed, followed by incubation at 65° C. for 20 minutes to hydrolyze N-formylkynurenine, the product of indoleamine 2,3-dioxygenase, to kynurenine. The reaction mixture was then centrifuged for 10 mins at 500×g to sediment the precipitate. 100 μL of the supernatant was transferred from each well to a fresh 96-well plate. 100 μl of 2% (w/v) p-dimethylaminobenzaldehyde (#15647-7, Sigma-Aldrich) in acetic acid (#A6283, Sigma-Aldrich) was added to each well mixed and incubated at room temperature for 20 mins. Kynurenine concentrations were determined by measuring absorbance at 480 nm and calibrating against an L-kynurenine (#K8625, Sigma-Aldrich) standard curve using a SPECTRAMAX® M2e microplate reader (Molecular Devices). The percentage activity at each inhibitor concentration was determined and IC50 values assessed using nonlinear regression.

human IDO1 = target: T2, human IDO1 (Homo sapiens, UniProt P14902); experiment: IDO inhibition assay in HEK293 cells stably expressing human IDO1 (kynurenine, Ehrlich reagent, absorbance 490 nm); type: cell-based; details: 20 hours incubation, read-out: IDO1 HEK Human IC50
T2 construct: expressed in transfected cells
T2 sequence (P14902 whole entry): as above
Procedure: HEK293 cells were transfected with a pCDNA-based mammalian expression vector harboring human IDO1 cDNA (NM 002164.2) by electroporation. They were cultured in medium (DMEM with 10% FBS) containing 1 mg/ml G418 for two weeks. Clones of HEK293 cells that stably expressed human IDO1 protein were selected and expanded for IDO inhibition assay. The human IDO1/HEK293 cells were seeded at 10,000 cells per 50 μL per well with RPMI/phenol red free media contains 10% FBS in a 384-well black wall clear bottom tissue culture plate (Matrix Technologies LLC) 100 nL of certain concentration of compound was then added to each well using ECHO liquid handling systems. The cells were incubated for 20 hours in 37° C. incubator with 5% CO2. The compound treatments were stopped by adding trichloroacetic acid (Sigma-Aldrich) to a final concentration at 0.2%. The cell plate was further incubated at 50° C. for 30 minute. The equal volume supernatant ([…]) and 0.2% (w/v) Ehrlich reagent (4-dimethylaminobenzaldehyde, Sigma-Aldrich) in glacial acetic acid were mixed in a new clear bottom 384-well plate. This plate was then incubated at room temperature for 30 minute. The absorbance at 490 nm was measured on Envision plate reader. Compound IC50 values were calculated using the counts of 500 nM of a reference standard treatment as one hundred percent inhibition, and counts of no compound but DMSO treatment as zero percent inhibition.

IC50 [1] [nM]	IC50 (human IDO1) [nM]	Compound
288		C[C@@H](Nc1ncc(-c2ccc(Cl)cc2)s1)[C@H]1CC[C@@H](c2ccnc3ccc(F)cc32)CC1 [Example 39, 5-(4-Chlorophenyl)-N—((R)-1-((1s,4S)-4-(6-fluoroquinolin-4-yl)cyclohexyl)ethyl)thiazol-2-amine]
20.2		CCC(Nc1nnc(-c2ccc(OC)cc2)o1)[C@H]1CC[C@@H](c2ccnc3c(C(F)(F)F)cccc32)CC1 (stereo partly drawn) [Example 68, 5-(4-Methoxyphenyl)-N-(1-((1s,4s)-4-(8-(trifluoromethyl)quinolin-4-yl)cyclohexyl)propyl)-1,3,4-oxadiazol-2-amine]
26.2		CCC(Nc1nnc(-c2ccc(OC)cc2)o1)[C@H]1CC[C@@H](c2ccnc(F)c2C)CC1 (single isomer, unassigned) [Example 63-1, N-(1-((1s,4s)-4-(2-Fluoro-3-methylpyridin-4-yl)cyclohexyl)propyl)-5-(4-methoxyphenyl)-1,3,4-oxadiazol-2-amine]
54.8		CCC(Nc1nnc(-c2ccc(OC)cc2)o1)C1CCC(c2ccnc3ccc(C(F)(F)F)cc23)CC1 (single isomer, unassigned) [Example 60, 5-(4-methoxyphenyl)-N-(1-((1s,4s)-4-(6-(trifluoromethyl)quinolin-4-yl)cyclohexyl)propyl)-1,3,4-oxadiazol-2-amine]
7.4		CCC(Nc1nnc(-c2ccc(Cl)cc2)o1)[C@H]1CC[C@@H](c2ccnc3ccc(C(F)(F)F)cc32)CC1 (single isomer, unassigned) [Example 58-2, 5-(4-Chlorophenyl)-N-(1-((1s,4s)-4-(6-(trifluoromethyl)quinolin-4-yl)cyclohexyl)propyl)-1,3,4-oxadiazol-2-amine]
8.9		CCC(Nc1nnc(-c2ccc(OC)cc2)o1)C1CCC(Oc2ccnc3ccccc23)CC1 (single isomer, unassigned) [Example 64-2]
326		CCC(Nc1nnc(-c2ccc(Cl)cc2)o1)[C@H]1CC[C@@H](c2ccnc3ccc(C(F)(F)F)cc32)CC1 (single isomer, unassigned) [Example 58-1, 5-(4-Chlorophenyl)-N-(1-((1s,4s)-4-(6-(trifluoromethyl)quinolin-4-yl)cyclohexyl)propyl)-1,3,4-oxadiazol-2-amine]
916		CCC(Nc1nnc(-c2ccc(OC)cc2)o1)C1CCC(Oc2ccnc3ccccc23)CC1 (single isomer, unassigned) [Example 64-1]
	37.1	C[C@@H](Nc1nnc(C2CC2)o1)[C@H]1CC[C@@H](c2ccnc3ccc(F)cc32)CC1 [Example 28, 5-cyclopropyl-N-((R)-1-((1s,4S)-4-(6-fluoroquinolin-4-yl)cyclohexyl)ethyl)-1,3,4-oxadiazol-2-amine]
	811	CCC(Nc1nnc(-c2ccc(F)cc2)o1)C1CCC(c2ccnc3ccc(C(F)(F)F)cc23)CC1 (single isomer, unassigned) [Example 61, 5-(4-fluorophenyl)-N-(1-((1s,4s)-4-(6-(trifluoromethyl)quinolin-4-yl)cyclohexyl)propyl)-1,3,4-oxadiazol-2-amine]
	64.1	COc1ccc(-c2nnc(N[C@H](C)[C@H]3CC[C@@H](c4ccnc5ccc(F)cc54)CC3)o2)cn1 [Example 33, N-((R)-1-((1s,4S)-4-(6-fluoroquinolin-4-yl)cyclohexyl)ethyl)-5-(6-methoxypyridin-3-yl)-1,3,4-oxadiazol-2-amine]
	2000	Cc1ccc(-c2nnc([C@H](C)[C@H]3CC[C@@H](c4ccnc5ccc(F)cc54)CC3)o2)cc1F [Example 16, 2-(3-fluoro-4-methylphenyl)-5-((R)-1-((1s,4S)-4-(6-fluoroquinolin-4-yl)cyclohexyl)ethyl)-1,3,4-oxadiazole]
	122	CCC(Nc1nnc(-c2ccc(OC)cc2)o1)C1CCC(c2ccnc3ccc(F)cc23)CC1 (stereo not drawn) [Example 50, N-(1-((1r,4r)-4-(6-Fluoroquinolin-4-yl)cyclohexyl)propyl)-5-(4-methoxyphenyl)-1,3,4-oxadiazol-2-amine]
	1000	C[C@@H](Nc1nnc(-c2ccc(-c3nccs3)cc2)o1)[C@H]1CC[C@@H](c2ccnc3ccc(F)cc32)CC1 [Example 35, N-((R)-1-((1s,4S)-4-(6-fluoroquinolin-4-yl)cyclohexyl)ethyl)-5-(4-(thiazol-2-yl)phenyl)-1,3,4-oxadiazol-2-amine]
	239	C[C@@H](c1nnc(-c2ccc(F)c(Cl)c2)o1)[C@H]1CC[C@@H](c2ccnc3ccc(F)cc32)CC1 [Example 17, 2-(3-chloro-4-fluorophenyl)-((R)-1-((1s,4S)-4-(6-fluoroquinolin-4-yl)cyclohexyl)ethyl)-1,3,4-oxadiazole]
	9.6	COc1ccc(-c2nnc(N[C@H](C)[C@H]3CC[C@@H](c4ccnc5ccc(F)cc54)CC3)o2)cc1 [Example 25, N—((R)-1-((1s,4S)-4-(6-Fluoroquinolin-4-yl)cyclohexyl)ethyl)-5-(4-methoxyphenyl)-1,3,4-oxadiazol-2-amine]
	747	Cc1ccc(-c2nnc([C@H](C)[C@H]3CC[C@@H](c4ccnc5ccc(F)cc54)CC3)[nH]2)cc1F [Example 10, 6-fluoro-4-((1S,4s)-4-((R)-1-(5-(3-fluoro-4-methylphenyl)-4H-1,2,4-triazol-3-yl)ethyl)cyclohexyl)quinoline]
	68.2	C[C@@H](c1nnc(Nc2ccc(F)cc2)[nH]1)[C@H]1CC[C@@H](c2ccnc3ccc(F)cc32)CC1 [Example 21, N-(4-Fluorophenyl)-5-((R)-1-((1s,4s)-4-(6-fluoroquinolin-4-yl)cyclohexyl)ethyl)-4H-1,2,4-triazol-3-amine]
	18.3	C[C@@H](c1ncc(-c2ccc(F)cc2)[nH]1)[C@H]1CC[C@@H](c2ccnc3ccc(F)cc32)CC1 [Example 47, 6-Fluoro-4-((1S,4s)-4-((R)-1-(5-(4-fluorophenyl)-1H-imidazol-2-yl)ethyl)cyclohexyl)quinoline]
	9	C[C@@H](Nc1nnc(C2CCCCC2)o1)[C@H]1CC[C@@H](c2ccnc3ccc(F)cc32)CC1 [Example 27, 5-Cyclohexyl-N—((R)-1-((1s,4S)-4-(6-fluoroquinolin-4-yl)cyclohexyl)ethyl)-1,3,4-oxadiazol-2-amine]
	386	C[C@@H](c1ncc(-c2ccc(C#N)cc2)o1)[C@H]1CC[C@@H](c2ccnc3ccc(F)cc32)CC1 [Example 46, 4-(2-((R)-1-((1s,4S)-4-(6-Fluoroquinolin-4-yl)cyclohexyl)ethyl)oxazol-5-yl)benzonitrile]
	288	C[C@@H](c1ncc(-c2ccc(Cl)cc2)o1)[C@H]1CC[C@@H](c2ccnc3ccc(F)cc32)CC1 [Example 43, 5-(4-Chlorophenyl)-2-((R)-1-((1s,4S)-4-(6-fluoroquinolin-4-yl)cyclohexyl)ethyl)oxazole]
	330	CCOCC(Nc1nnc(-c2ccc(OC)cc2)o1)[C@H]1CC[C@@H](c2ccnc(F)c2C)CC1 (single isomer, unassigned) [Example 57-2, N-(2-Ethoxy-1-((1s,4s)-4-(2-fluoro-3-methylpyridin-4-yl)cyclohexyl)ethyl)-5-(4-methoxyphenyl)-1,3,4-oxadiazol-2-amine]
	37	C[C@@H](c1nnc(-c2ccc(C#N)cc2)s1)[C@H]1CC[C@@H](c2ccnc3ccc(F)cc32)CC1 [Example 6, 4-(5-((R)-1-((1s,4S)-4-(6-Fluoroquinolin-4-yl)cyclohexyl)ethyl)-1,3,4-thiadiazol-2-yl)benzonitrile]
